Results from US20230330059A1, “3-PHENYL-2H-CHROMENE DERIVATIVE AND PHARMACEUTICAL COMPOSITION FOR PREVENTING OR TREATING ALZHEIMER'S, CONTAINING SAME” (NEUROBIONET, INC., priority 2020, published 2023).
Read-outs that look alike come from different tables or passages of the source.

How the values were obtained:
[1] = system: N2a cells; assay: Neurite outgrowth in N2a cells (Incucyte); format: cell-based, mouse; conditions: 5 µM, FIGS. 14a and 14b
Description: N2a cells were aliquoted at a density of 1x10^4 cells/well into 24-well plates, treated with daidzein, o-desmethylangolensin, S-equal, SPA1413 and SPA1426 at 5 µM, and evaluated for neurite outgrowth by the real-time cell monitoring system InCucyte. The cells were photographed every 2 hours, and the neurites were counted through Incucyte software.

[2] = system: nitric oxide production in LPS-treated BV2 cells; assay: Nitric oxide production (Griess) in LPS-treated BV2 cells; format: cell-based, mouse; conditions: LPS (100 ng/ml) 24 hours, Griess reagent, cell type not stated in Table 1, read-out: IC50 (NO production)
Description: BV2 cells were seeded at a density of 4 x 10^5 cells/well into 96-well plates, and primary microglial cells isolated from the brain of […] ICR mice were seeded at a density of 4 x 10^5 cells/well into 24-well plates.
The culture media were collected and measured for NO production using a Griess reagent solution (1% sulfanilamide and 0.1% N-1-naphthyl ethylenediamine dihydrochloride in 5% phosphoric acid). Briefly, a total of 50 µL of the supernatant was transferred to new 96-well plates and mixed with the same volume of the Griess reagent solution, followed by measuring OD at 570 nm. In addition, the cell viability was assayed in the same manner as in Experimental Example 2.

Row | IC50 ([2]; Mus musculus, BV-2) [µM] | IC50 [2] [µM] | SMILES | neurite outgrowth [1]
1 | 86.5 | – | O=c1c(-c2ccc(O)cc2)coc2cc(O)ccc12 [Daidzein, reference compound] | significantly increased
2 | – | 15.1 | CNC(=N)NCCC[C@H](N)C(=O)O [L-NMMA, reference compound] | –
3 | – | 34.7 | CC(C(=O)c1ccc(O)cc1O)c1ccc(O)cc1 (centres unmarked) [O-DMA, o-desmethylangolensin, reference compound] | –
4 | – | 11.7 | Oc1ccc([C@H]2COc3cc(O)ccc3C2)cc1 [S-equol, reference compound] | –
